From US20250197425A1, “2,6,9-TRISUBSTITUTED PURINES” (ASTRAZENECA AB, priority 2022, published 2025)
Converted amounts (≈) assume the structure as drawn.

Columns and labels:
[1] = CLint assessment in human liver microsomes (HLM); format: in vitro ADME; conditions: 1 μM
Summary of the method: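 Microsomes preincubated 8 min with NADPH, then compound added and incubated 30 min at 37° C. Remaining compound measured by LC-MS/MS. t1/2 and CLint calculated, with CLint scaled to incubation volume per mg microsomal protein.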

[2] = test system: NPM phosphorylation (Thr199, CDK2-cyclin E complex); test: NPM phosphorylation imaging assay in MCF-7 cells; format: cell-based; conditions: Homo sapiens, MCF7, 2 h, 4N DNA cells
Summary of the method: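 MCF-7 cells were fixed, permeabilised and immunostained, then imaged for phospho-NPM (Thr199), a CDK2-cyclin E site. Analysis was gated on 4N-DNA cells by Hoechst staining. Signals were normalised to controls and fitted for IC50.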

[3] = Aqueous thermodynamic solubility, shake-flask; format: physicochemical; conditions: aqueous phosphate buffer, 25 °C, pH 7.4, aqueous buffer, thermodynamic from solid, phosphate buffer 0.1 M, pH 7.4, 24 hours
Summary of the method: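 Dried compound (after DMSO evaporation) was equilibrated in 0.1 M phosphate buffer pH 7.4 with stirring for 24 h at 25° C. Undissolved material was removed by double centrifugation, and the supernatant was diluted in water and quantified by UPLC/MS/MS.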

[4] = test system: 97 targets (GPCRs, ion channels, transporters, enzymes, kinases); test: Secondary pharmacology panel (Eurofins CEREP); conditions: compared with Compound 6
Protocol: Secondary pharmacology assays were performed at Eurofins CEREP using standard experimental techniques. Specifically, radioligand binding assays were used to assess the ability of test compounds to interact with G-protein coupled receptors (GPCRs), ion channels, and transmembrane transporters. Assays measuring substrate turnover or phosphorylation by isolated proteins were used for enzyme and kinase targets, allowing direct determination of the mode of action of the tested compounds.

[5] = test system: OVCAR3 cells; test: Cellular proliferation EdU assay, OVCAR3; format: cell-based, human; conditions: Homo sapiens, OVCAR-3, 48 h, EdU assay, two days; read-out: OVCAR3 IC50
Summary of the method: (§1)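 MCF-7 (800 cells/well) and OVCAR3 (1200 cells/well) in RPMI with 10% FBS exposed to compounds for two days at 37 °C.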

[6] = test system: MCF-7 cells; test: Cellular proliferation EdU assay, MCF-7; format: cell-based; conditions: Homo sapiens, MCF7, 48 h, EdU assay, two days; read-out: MCF-7 IC50
Summary of the method: as §1

HLM CLint [1] [µL/min/mg] | IC50 [2] [nM] | solubility at 24 h [3] [µM] | IC50 [5] [nM] | IC50 [6] [nM] | SMILES | secondary pharmacology profile [4]
45.2 | 233 | 48 (≈ 22.6 µg/mL) | 457 | 969 | CCn1cnc2c(N[C@H]3CCN(S(=O)(=O)NC)C3)nc(-c3cccc4c3CC[C@]4(C)O)nc21 (relative stereo) [Example 3, (S)-3-((9-ethyl-2-((R*)-1-hydroxy-1-methyl-2,3-dihydro-1H-inden-4-yl)-9H-purin-6-yl)amino)-N-methylpyrrolidine-1-sulfonamide] | broadly similar secondary pharmacology to Compound 6
46 | 11 | 280 (≈ 134 µg/mL) | 44 | – | CCn1cnc2c(N[C@@H]3CN(S(=O)(=O)c4ncc[nH]4)C[C@H]3F)nc(N[C@@H](CO)C3CC3)nc21 (relative stereo) [Example 17, (R)-2-((6-(((3R*,4R*)-1-((1H-imidazol-2-yl)sulfonyl)-4-fluoropyrrolidin-3-yl)amino)-9-ethyl-9H-purin-2-yl)amino)-2-cyclopropylethan-1-ol] | –
– | 133 | – | 276 | 538 | CCNS(=O)(=O)N1CC[C@H](Nc2nc(N[C@@H](CO)C3CC3)nc3c2ncn3C)C1 [Example 19, (S)-3-((2-(((R)-1-cyclopropyl-2-hydroxyethyl)amino)-9-methyl-9H-purin-6-yl)amino)-N-ethylpyrrolidine-1-sulfonamide] | –
– | 241 | – | 616 | 1430 | CCNS(=O)(=O)N1CC[C@H](Nc2nc(N[C@@H](CC)[C@@H](C)O)nc3c2ncn3C)C1 [Example 53, (S)—N-ethyl-3-((2-(((2R,3S)-2-hydroxypentan-3-yl)amino)-9-methyl-9H-purin-6-yl)amino)pyrrolidine-1-sulfonamide] | –
